The numbers were not newly measured in patent publication US20170348285A1, “TREATMENT OF DRY EYE DISEASE WITH PARASYMPATHETIC & ANTI-SYMPATHETIC AGENTS” (priority 2016, published 2017), which cites them from elsewhere.

The conditions of series [1]: systemic administration.
For series [2] the following is noted: topical 0.05%, treatment for two months.
For series [3] the following is noted: topical formulation.

As for `CC[C@@H]1C(=O)OC[C@@H]1Cc1cncn1C` [pilocarpine], the “efficacy as treatment of dry eye disease” value in series [1] is “effective systemic treatment of dry eye disease”. Also, in series [2], the “change in pupil size” value is “without any change in pupil size” and the tear production result is recorded as “stimulate tear production”. The spasms of accommodation entry in series [3] is on record as “cause spasms of accommodation”.
Turning to `CCOc1ccccc1OCCN[C@H](C)Cc1ccc(OC)c(S(N)(=O)=O)c1` [tamsulosin], the floppy iris syndrome result (during eye surgery) is “can cause the floppy iris syndrome”. Besides, the retrograde ejaculation entry (in vivo) was “can cause retrograde ejaculation”.
